Test systems include ACHN renal; SK-OV-3 ovarian; NCI-H522 lung; IGROV1 ovarian; SNB-19 CNS; NCI-H23 lung; UACC-257 melanoma; DU-145 prostate; MOLT-4 leukemia; M14 melanoma.
Holding throughout (assay): NCI tumour cell line growth inhibition, 48 h

Structures are written as SMILES.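 How tested: cells in 96-well plates exposed to compound for 48 hours at five concentrations. GI50 is the concentration that inhibits growth by half. TGI: total growth inhibition.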

Turning to `O=C1c2cc3c(cc2-c2c1c1cc(Cl)c(Cl)cc1c(=O)n2C[C@H](O)CO)OCO3`, the GI50 is < 0.01 µM in the assay on ACHN renal; < 0.01 µM in the assay with SK-OV-3 ovarian; < 0.01 µM in the assay with NCI-H522 lung; 0.0219 µM with IGROV1 ovarian; < 0.01 µM with SNB-19 CNS; < 0.01 µM in the assay on NCI-H23 lung. In addition, the GI50 with UACC-257 melanoma was 0.0123 µM; in the assay on DU-145 prostate, < 0.01 µM. Moreover, the TGI with ACHN renal came out at 0.0128 µM; with SK-OV-3 ovarian it was 0.0536 µM; in the assay with NCI-H522 lung it was 0.122 µM; in the assay with IGROV1 ovarian it was 2.08 µM; in the assay on SNB-19 CNS, 2.79 µM; in the assay on NCI-H23 lung it was 0.0448 µM. Further, the figures for the TGI with UACC-257 melanoma and in the assay on DU-145 prostate were 0.217 µM and 1.8 µM, respectively.
Turning to `C=CCN1CCC23c4c5ccc(O)c4OC2C(=NN=C2CCC4(O)C6Cc7ccc(O)c8c7C4(CCN6CC=C)C2O8)CCC3(O)C1C5` (stereo unspecified), the TGI in the assay with ACHN renal is 41.2 µM; with SK-OV-3 ovarian, > 100 µM; in the assay on MOLT-4 leukemia, > 100 µM; with M14 melanoma, 32 µM; with NCI-H522 lung, 72.1 µM; in the assay with IGROV1 ovarian, > 100 µM. Moreover, the TGI with SNB-19 CNS is > 100 µM; in the assay with NCI-H23 lung, > 100 µM; in the assay on UACC-257 melanoma, 53.2 µM.
Take `CCOC(=O)/C=C/c1ccc(C#Cc2ccccc2)cc1`: the GI50 with ACHN renal was > 100 µM; with SK-OV-3 ovarian it was > 100 µM; with MOLT-4 leukemia, > 100 µM; in the assay with M14 melanoma it was > 100 µM; in the assay on SNB-19 CNS, > 100 µM; in the assay on NCI-H23 lung it was 95 µM. Besides, the GI50 with UACC-257 melanoma was > 100 µM. In addition, the TGI in the assay with ACHN renal, in the assay on SK-OV-3 ovarian, in the assay with MOLT-4 leukemia, in the assay with M14 melanoma, in the assay on SNB-19 CNS and in the assay with NCI-H23 lung was > 100 µM in each case. The TGI with UACC-257 melanoma was > 100 µM.
On to `CC(C)(C)[Si](C)(C)OC1C(=O)C[C@H]2CCCC[C@@H]12` (stereo partly specified), for which the TGI in the assay with ACHN renal, in the assay on SK-OV-3 ovarian, in the assay on MOLT-4 leukemia, with M14 melanoma, with IGROV1 ovarian and in the assay on SNB-19 CNS was > 100 µM each time. Further, the TGI in the assay on NCI-H23 lung and in the assay on UACC-257 melanoma was > 100 µM in each case.
Take `O=C1c2cccc3cccc(c23)C(=O)N1CCCCCN1CCN(CCCCCOc2ccc(-c3nc4ccc(N5CCOCC5)cc4[nH]3)cc2)CC1`: the GI50 was > 35.7 µM in the assay on ACHN renal; > 100 µM with SK-OV-3 ovarian; 0.264 µM with MOLT-4 leukemia; > 49 µM with NCI-H522 lung; 1.76 µM in the assay with IGROV1 ovarian; > 46.1 µM in the assay with SNB-19 CNS. Further, the GI50 is 21.2 µM with NCI-H23 lung, 2.15 µM in the assay on UACC-257 melanoma and 14.7 µM in the assay with DU-145 prostate. In addition, the TGI in the assay with ACHN renal is > 56.1 µM; in the assay with SK-OV-3 ovarian it was > 100 µM; with MOLT-4 leukemia, 2.29 µM; in the assay on NCI-H522 lung it was > 68.5 µM; in the assay with IGROV1 ovarian, 8.08 µM; with SNB-19 CNS, > 60 µM. The TGI with NCI-H23 lung amounted to 46.6 µM; in the assay with UACC-257 melanoma it was 3.76 µM; in the assay with DU-145 prostate, 27.8 µM.
For `Cn1c2ccccc2c2ncc3[nH]c4ccccc4c3c21`, the TGI was 54.9 µM with ACHN renal; 80.8 µM with SK-OV-3 ovarian; 67.4 µM in the assay on MOLT-4 leukemia; 35.2 µM in the assay with M14 melanoma; 33.2 µM in the assay on NCI-H522 lung; 58.2 µM in the assay with IGROV1 ovarian. Besides, the TGI with SNB-19 CNS was > 100 µM; with NCI-H23 lung, 43.7 µM; in the assay with UACC-257 melanoma, 42.6 µM.
For the compound `C[C@]12CCC(=O)C=C1CC[C@@H]1C2CC[C@]2(C)Nc3[nH]ncc3CC12` (stereo partly specified), the TGI with ACHN renal, in the assay on SK-OV-3 ovarian, in the assay with MOLT-4 leukemia, with M14 melanoma, in the assay on IGROV1 ovarian and in the assay with NCI-H23 lung was > 100 µM each time. Moreover, the TGI in the assay with UACC-257 melanoma was > 100 µM.
`Clc1nc(Cl)nc(Nc2cccc3ccccc23)n1`: the GI50 is 92.5 µM with ACHN renal; > 100 µM in the assay with SK-OV-3 ovarian; 40.3 µM in the assay with MOLT-4 leukemia; > 100 µM in the assay on M14 melanoma; > 100 µM with IGROV1 ovarian; > 100 µM in the assay with SNB-19 CNS. Moreover, the GI50 in the assay on NCI-H23 lung, in the assay with UACC-257 melanoma and in the assay with DU-145 prostate was > 100 µM in each case. Also, the TGI in the assay on ACHN renal, in the assay with SK-OV-3 ovarian, in the assay with MOLT-4 leukemia, in the assay on M14 melanoma, with IGROV1 ovarian and with SNB-19 CNS was > 100 µM each time. The TGI in the assay with NCI-H23 lung, with UACC-257 melanoma and in the assay with DU-145 prostate was > 100 µM throughout.
In the case of `CCOC(=O)c1ccc(N=Nc2cc(C(=O)OCC)ccc2O)cc1`, the TGI in the assay with ACHN renal, in the assay with SK-OV-3 ovarian, in the assay with MOLT-4 leukemia, in the assay on M14 melanoma, with NCI-H522 lung and in the assay on IGROV1 ovarian was > 100 µM each time. Also, the TGI with NCI-H23 lung was > 100 µM.
Regarding `COC(=O)c1s/c(=N\C(=S)N(C)C)n(-c2ccc(Cl)cc2)c1C(=O)OC`, the TGI in the assay on ACHN renal is > 100 µM; in the assay on SK-OV-3 ovarian, > 10 µM; in the assay on MOLT-4 leukemia, > 100 µM; in the assay with M14 melanoma, > 100 µM; with NCI-H522 lung, > 100 µM; in the assay with IGROV1 ovarian, > 10 µM. Also, the TGI in the assay on SNB-19 CNS, with NCI-H23 lung and in the assay on UACC-257 melanoma was > 100 µM throughout.
Take `O=C1CCC(=O)c2c1c(O)c1ccncc1c2O`: the TGI in the assay on ACHN renal stood at 28.6 µM; with SK-OV-3 ovarian, 98.8 µM; in the assay with MOLT-4 leukemia it was 43.1 µM; in the assay on M14 melanoma, 28.9 µM; with NCI-H522 lung, 24.5 µM; in the assay on IGROV1 ovarian, 31.6 µM. Also, the values for the TGI in the assay with SNB-19 CNS, with NCI-H23 lung and in the assay with UACC-257 melanoma were 89.2 µM, 31.9 µM and 20.2 µM, respectively.
As to `COC12OCCN(C)C1=CC(=O)C1=NNC(C)C12` (stereo unspecified), the TGI in the assay with SK-OV-3 ovarian, in the assay on MOLT-4 leukemia, in the assay with M14 melanoma, in the assay on NCI-H522 lung, with IGROV1 ovarian and in the assay on NCI-H23 lung was > 100 µM throughout. Also, in the assay on UACC-257 melanoma, the TGI is > 100 µM.
